These results are taken from patent publication US20230116972A1, “CD38 MODULATORS AND METHODS OF USE THEREOF” (Cytokinetics, Inc., priority 2021, published 2023).

Experiment [1] has as its target T1, endogenous CD38 in HL60 cells (Homo sapiens, UniProt P28907).
T1 construct: endogenous in cells; host or cells: HL60 (leukemic cells, treated with all-trans retinoic acid)
T1 sequence (P28907 1-300): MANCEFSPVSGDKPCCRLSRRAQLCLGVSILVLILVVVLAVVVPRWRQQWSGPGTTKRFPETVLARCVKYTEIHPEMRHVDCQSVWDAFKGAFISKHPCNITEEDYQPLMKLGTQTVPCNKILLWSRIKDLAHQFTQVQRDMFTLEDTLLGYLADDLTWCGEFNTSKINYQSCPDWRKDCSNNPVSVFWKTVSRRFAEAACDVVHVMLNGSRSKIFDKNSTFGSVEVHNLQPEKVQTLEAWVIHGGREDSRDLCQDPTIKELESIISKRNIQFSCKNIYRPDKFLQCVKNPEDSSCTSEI
Nature of the experiment: cellular CD38 assay in HL60 cells (cellular NAD levels). The format is cell-based. As to conditions: all-trans retinoic acid, 24 hours, read-out: hCD38 HL60 ATRA NAD Cell Diaphorase IC50. The method, boiled down: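 Endogenous CD38 inhibition is inferred from NAD levels in HL60 cells after 24 h compound exposure at 20000 cells per well. A lytic cycling readout (0.2 U/mL diaphorase, 0.8 U/mL alcohol dehydrogenase, resazurin, FMN, ethanol, 0.2% Triton X-100, Tris/EDTA pH 8.4) ran 60 min at ambient temperature. Resorufin fluorescence was read at 540/590 nm.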

The target in a further experiment is T2, human CD38 (Homo sapiens, UniProt P28907).
T2 sequence (P28907 1-300): T1 sequence (P28907 1-300)
Nature of the experiment: human recombinant CD38 enzyme assay (hydrolysis of NAD+). Type of experiment: biochemical. To be noted: human recombinant CD38, 0.4 nM enzyme, 62.5 μM NAD+; read-out: hCD38 BioChem IC50. The method, boiled down: (§1)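 Steps: compound and recombinant enzyme are mixed, NAD+ is added, and the reaction runs 60 min at room temperature. An ADH/ethanol mix containing a CD38 inhibitor halts hydrolysis and forms NADH. After NaOH quench, resazurin plus diaphorase produce fluorescent resorufin, read at 540/590 nm.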

In the next experiment the target is T3, mouse CD38 (Mus musculus, UniProt P56528).
T3 sequence (P56528 1-304): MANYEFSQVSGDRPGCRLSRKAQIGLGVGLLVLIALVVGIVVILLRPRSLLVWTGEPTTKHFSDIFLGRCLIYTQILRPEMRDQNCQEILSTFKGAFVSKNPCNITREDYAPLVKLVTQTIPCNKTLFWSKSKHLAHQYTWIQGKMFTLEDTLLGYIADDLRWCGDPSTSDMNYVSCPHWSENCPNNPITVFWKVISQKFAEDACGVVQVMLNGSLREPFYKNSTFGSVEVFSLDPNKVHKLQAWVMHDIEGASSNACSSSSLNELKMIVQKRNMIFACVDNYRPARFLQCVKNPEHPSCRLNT
Nature of the experiment: mouse recombinant CD38 enzyme assay (hydrolysis of NAD+). To be noted: read-out: mCD38 BioChem IC50. Type of experiment: biochemical. The method, boiled down: as §1

What is called IC50 is the concentration at which inhibition is half-maximal. Regarding `O=C(NC1CCC(F)(F)CC1)c1cc(C2CCOCC2)nc(-n2ccnc2)n1` [Compound 194, N-(4,4-difluorocyclohexyl)-2-(1H-imidazol-1-yl)-6-(tetrahydro-2H-pyran-4-yl)pyrimidine-4-carboxamide], the IC50 is 7160 nM in experiment [1], 111 nM at human CD38 and 63.6 nM on mouse CD38.
In the same order, the values of `O=C(Nc1ccc(C(F)F)nc1)c1cc(C2CCOCC2)nc(-n2ccnc2)n1` [Compound 195, N-(6-(difluoromethyl)pyridin-3-yl)-2-(1H-imidazol-1-yl)-6-(tetrahydro-2H-pyran-4-yl)pyrimidine-4-carboxamide] are 1580 nM, 14.6 nM and 9.9 nM.
In the same order, the values of `O=C(Nc1ccc(C(F)(F)F)nc1)c1cc(C2CCOCC2)nc(-n2ccnc2)n1` [Compound 196, 2-(1H-imidazol-1-yl)-6-(tetrahydro-2H-pyran-4-yl)-N-(6-(trifluoromethyl)pyridin-3-yl)pyrimidine-4-carboxamide] are 3190 nM, 25.4 nM and 19.3 nM.
`Cn1cncc1-c1nc(C(=O)Nc2ccc(C(F)F)nc2)cc(C2CCOCC2)n1` [Compound 197, N-(6-(difluoromethyl)pyridin-3-yl)-2-(1-methyl-1H-imidazol-5-yl)-6-(tetrahydro-2H-pyran-4-yl)pyrimidine-4-carboxamide]: the IC50 in experiment [1] worked out at 709 nM; on human CD38, 4.5 nM; at mouse CD38, 1 nM.
The corresponding values for `Cn1cncc1-c1nc(C(=O)Nc2ccc(C(F)(F)F)nc2)cc(C2CCOCC2)n1` [Compound 198, 2-(1-methyl-1H-imidazol-5-yl)-6-(tetrahydro-2H-pyran-4-yl)-N-(6-(trifluoromethyl)pyridin-3-yl)pyrimidine-4-carboxamide] are 1130 nM, 3.8 nM and 1 nM.
As for `Cn1cncc1-c1nc(C(=O)NC2CCC(F)(F)CC2)cc(C2CCOCC2)n1` [Compound 200, N-(4,4-difluorocyclohexyl)-2-(1-methyl-1H-imidazol-5-yl)-6-(tetrahydro-2H-pyran-4-yl)pyrimidine-4-carboxamide], the IC50 in experiment [1] worked out at 2310 nM; on human CD38, 9.3 nM; on mouse CD38, 1.9 nM.
Take `COc1cc(-c2cncn2C)nc(C(=O)Nc2ccc(C(F)F)nc2)n1` [Compound 201, N-(6-(difluoromethyl)pyridin-3-yl)-4-methoxy-6-(1-methyl-1H-imidazol-5-yl)pyrimidine-2-carboxamide]: the values for the IC50 (in experiment [1]; at human CD38; on mouse CD38) were 317 nM, 2.6 nM and 1.3 nM, respectively.
For the molecule `Cc1cc(-c2cncn2C)nc(C(=O)Nc2ccc(C(F)F)nc2)n1` [Compound 202, N-(6-(Difluoromethyl)pyridin-3-yl)-4-methyl-6-(1-methyl-1H-imidazol-5-yl)pyrimidine-2-carboxamide], the IC50 in experiment [1] is 229 nM; at human CD38, 2.8 nM; at mouse CD38, 1.1 nM.
As for `CO[C@H]1CC[C@H](NC(=O)c2nc(-c3cncn3C)cc(C3CC3)n2)CC1` [Compound 203, 4-cyclopropyl-N-((1r,4r)-4-methoxycyclohexyl)-6-(1-methyl-1H-imidazol-5-yl)pyrimidine-2-carboxamide], the values for the IC50 (in experiment [1]; at human CD38; on mouse CD38) were 7870 nM, 161 nM and 12.1 nM, respectively.
Consider `CO[C@H]1CC[C@H](NC(=O)c2nc(C3CC3)cc(-n3ccnc3)n2)CC1` [Compound 204, 4-cyclopropyl-6-(1H-imidazol-1-yl)-N-((1r,4r)-4-methoxycyclohexyl)pyrimidine-2-carboxamide], for which the IC50 in experiment [1] stood at 8570 nM; at human CD38, 123 nM; at mouse CD38, 8.8 nM.
On to `O=C(Nc1ccc(C(F)F)nc1)c1nc(C2CC2)cc(-n2ccnc2)n1` [Compound 205, 4-cyclopropyl-N-(6-(difluoromethyl)pyridin-3-yl)-6-(1H-imidazol-1-yl)pyrimidine-2-carboxamide], for which the IC50 in experiment [1] stood at 410 nM; at human CD38, 4 nM; on mouse CD38, 1.6 nM.
In the same order, the values of `Cn1cncc1-c1cc(C2CC2)nc(C(=O)Nc2ccc(C(F)F)nc2)n1` [Compound 206, 4-cyclopropyl-N-(6-(difluoromethyl)pyridin-3-yl)-6-(1-methyl-1H-imidazol-5-yl)pyrimidine-2-carboxamide] are 576 nM, 3.9 nM and 1.7 nM.
In the case of `CO[C@H]1CC[C@H](NC(=O)c2nc(C)cc(-n3ccnc3)n2)CC1` [Compound 207, 4-(1H-imidazol-1-yl)-N-((1r,4r)-4-methoxycyclohexyl)-6-methylpyrimidine-2-carboxamide], the results for the IC50 (in experiment [1]; on human CD38; on mouse CD38) were 3690 nM, 24.8 nM and 7.2 nM, respectively.
On to `COCCO[C@H]1CC[C@H](NC(=O)c2nccc(-c3cncn3C)n2)CC1` [Compound 209, N-((1r,4r)-4-(2-methoxyethoxy)cyclohexyl)-4-(1-methyl-1H-imidazol-5-yl)pyrimidine-2-carboxamide], for which the values for the IC50 (in experiment [1]; on human CD38; on mouse CD38) were 8540 nM, 104 nM and 35 nM, respectively.
As to `COc1cc(-n2ccnc2)nc(C(=O)Nc2ccc(C(F)F)nc2)n1` [Compound 210, N-(6-(difluoromethyl)pyridin-3-yl)-4-(1H-imidazol-1-yl)-6-methoxypyrimidine-2-carboxamide], the figures for the 50% inhibitory concentration (IC50) (in experiment [1]; on human CD38; at mouse CD38) were 303 nM, 1.6 nM and 1.2 nM, respectively.
Regarding `O=C(N[C@H]1C[C@H](c2ccccc2)C1)c1nccc(-n2ccnc2)n1` [Compound 211, 4-(1H-imidazol-1-yl)-N-((1r,3r)-3-phenylcyclobutyl)pyrimidine-2-carboxamide], the IC50 in experiment [1] stood at 2010 nM; at human CD38, 46.2 nM; at mouse CD38 it was 29.8 nM.
On to `Cn1cncc1-c1ccnc(C(=O)N[C@H]2C[C@H](c3ccccc3)C2)n1` [Compound 213, 4-(1-methyl-1H-imidazol-5-yl)-N-((1r,3r)-3-phenylcyclobutyl)pyrimidine-2-carboxamide], for which the half-inhibitory concentration (IC50) in experiment [1] was 1470 nM; at human CD38 it was 15.2 nM; at mouse CD38 it was 9.1 nM.
Turning to `Cn1cncc1-c1ccnc(C(=O)N[C@H]2C[C@@H](c3ccccc3)C2)n1` [Compound 214, 4-(1-methyl-1H-imidazol-5-yl)-N-((1s,3s)-3-phenylcyclobutyl)pyrimidine-2-carboxamide], the IC50 was 9860 nM in experiment [1], 323 nM on human CD38 and 52.9 nM at mouse CD38.
Turning to `Cc1cc(-n2ccnc2)nc(C(=O)Nc2ccc(C(F)F)nc2)n1` [Compound 215, N-(6-(difluoromethyl)pyridin-3-yl)-4-(1H-imidazol-1-yl)-6-methylpyrimidine-2-carboxamide], the figures for the IC50 (in experiment [1]; at human CD38; on mouse CD38) were 214 nM, 2 nM and 1.6 nM, respectively.
Regarding `O=C(Nc1ccc(C(F)F)nc1)c1nc(O)cc(-n2ccnc2)n1` [Compound 216, N-(6-(difluoromethyl)pyridin-3-yl)-4-hydroxy-6-(1H-imidazol-1-yl)pyrimidine-2-carboxamide], the IC50 was 9420 nM in experiment [1], 66.6 nM at human CD38 and 49.3 nM on mouse CD38.
Turning to `COc1ccc([C@H]2C[C@H](NC(=O)c3nccc(-n4ccnc4)n3)C2)cc1` [Compound 217, 4-(1H-imidazol-1-yl)-N-((1r,3r)-3-(4-methoxyphenyl)cyclobutyl)pyrimidine-2-carboxamide], the values for the IC50 (in experiment [1]; at human CD38; at mouse CD38) were 1970 nM, 36.4 nM and 19.7 nM, respectively.
On to `COc1ccc([C@H]2C[C@H](NC(=O)c3nccc(-c4cncn4C)n3)C2)cc1` [Compound 218, N-((1r,3r)-3-(4-methoxyphenyl)cyclobutyl)-4-(1-methyl-1H-imidazol-5-yl)pyrimidine-2-carboxamide], for which the results for the IC50 (in experiment [1]; on human CD38; at mouse CD38) were 2220 nM, 25.2 nM and 11.6 nM, respectively.
On to `O=C(N[C@H]1C[C@H](Oc2ccccc2)C1)c1nccc(-n2ccnc2)n1` [Compound 219, 4-(1H-imidazol-1-yl)-N-((1r,3r)-3-phenoxycyclobutyl)pyrimidine-2-carboxamide], for which the IC50 worked out at 10800 nM in experiment [1], 361 nM on human CD38 and 99 nM on mouse CD38.
Consider `Cn1cncc1-c1ccnc(C(=O)N[C@H]2C[C@H](Oc3ccccc3)C2)n1` [Compound 220, 4-(1-methyl-1H-imidazol-5-yl)-N-((1r,3r)-3-phenoxycyclobutyl)pyrimidine-2-carboxamide], for which the 50% inhibitory concentration (IC50) in experiment [1] was 4950 nM; at human CD38, 146 nM; on mouse CD38 it was 52.2 nM.
